Some test systems named below: OVCAR-4 ovarian; RXF 393 renal; SK-MEL-28 melanoma; U251 CNS; EKVX NSCLC; UACC-257 melanoma; HT29 colon; SW-620 colon; RPMI-8226 leukemia; 786-0 renal.
Common to all, as to assay: growth of human tumour cells (NCI), 48 h

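Method: 48-hour compound exposure of cells in 96-well plates, five concentrations, linear interpolation of endpoints. At the GI50, growth is halved. TGI: total growth inhibition.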

`COCCOC(=O)C1=C(C)NC2=C(C(=O)CC(c3ccccc3OC)C2)C1c1cccc(O)c1` (configuration not stated): the GI50 is 8.98 µM in the test with OVCAR-4 ovarian; 14.1 µM with RXF 393 renal; 12.6 µM in the test with SK-MEL-28 melanoma; 16.3 µM in the test with U251 CNS; 14.4 µM in the test with EKVX NSCLC; 8.8 µM with UACC-257 melanoma. The GI50 in the test on HT29 colon is 5.38 µM; in the test on SW-620 colon, 12.5 µM; in the test with RPMI-8226 leukemia, 4.01 µM; with 786-0 renal, 12.2 µM. Also, the TGI in the test on OVCAR-4 ovarian is over 80.5 µM; in the test with RXF 393 renal, 36.4 µM; with SK-MEL-28 melanoma, 50.6 µM; in the test on U251 CNS, over 72.2 µM; with EKVX NSCLC, over 100 µM; in the test on UACC-257 melanoma, 61.1 µM. The TGI with HT29 colon came out at 25.3 µM; with SW-620 colon it was 33.5 µM; with RPMI-8226 leukemia, 31.4 µM; in the test with 786-0 renal, 51.6 µM.
For `COc1cc(OC)c2c(=O)c(O)c(-c3ccc(OC)c(OC)c3)oc2c1`, the TGI in the test with OVCAR-4 ovarian is 2.31 µM; in the test on RXF 393 renal, 56.6 µM; with SK-MEL-28 melanoma, over 31.6 µM; in the test on U251 CNS it was over 100 µM; in the test with EKVX NSCLC, over 100 µM; in the test with UACC-257 melanoma, over 100 µM. Besides, the TGI with HT29 colon is over 100 µM; with SW-620 colon, over 100 µM; with RPMI-8226 leukemia, over 31.6 µM; in the test on 786-0 renal, over 100 µM.
For the compound `CN1CCN(c2ccc3nc(-c4cc(C(C)(C)C)c(O)c(C(C)(C)C)c4)[nH]c3c2)CC1`, the GI50 was 5.43 µM in the test on OVCAR-4 ovarian; 1.72 µM in the test with RXF 393 renal; 1.91 µM with SK-MEL-28 melanoma; 2.92 µM in the test on U251 CNS; 4.3 µM in the test on EKVX NSCLC; 2 µM in the test on UACC-257 melanoma. Also, the GI50 is 2.1 µM in the test on HT29 colon, 2.33 µM in the test on SW-620 colon, 2.08 µM with RPMI-8226 leukemia and 1.82 µM in the test on 786-0 renal. Further, the TGI in the test with OVCAR-4 ovarian came out at 19 µM; with RXF 393 renal it was 3.52 µM; in the test on SK-MEL-28 melanoma, 3.4 µM; in the test on U251 CNS it was 8.59 µM; with EKVX NSCLC it was 16.5 µM; in the test with UACC-257 melanoma it was 3.97 µM. Moreover, the TGI in the test with HT29 colon is 4.41 µM; with SW-620 colon it was 4.06 µM; in the test with RPMI-8226 leukemia it was 4.85 µM; in the test on 786-0 renal, 3.5 µM.
`O=C1OC(c2ccc(O)c(-c3ccccc3)c2)(c2ccc(O)c(-c3ccccc3)c2)c2c(Cl)c(Cl)c(Cl)c(Cl)c21`: the TGI in the test on OVCAR-4 ovarian, with RXF 393 renal, in the test on SK-MEL-28 melanoma, in the test with U251 CNS, with EKVX NSCLC and in the test with UACC-257 melanoma was over 100 µM in each case. Further, the TGI in the test with HT29 colon, in the test with SW-620 colon, in the test on RPMI-8226 leukemia and in the test on 786-0 renal was over 100 µM each time.
Take `CCc1c2c(nc3cc4c(cc13)OCO4)-c1cc3c(c(=O)n1C2)COC(=O)[C@@]3(CC)OC(=O)CN`: the GI50 is 0.0244 µM with OVCAR-4 ovarian; under 0.01 µM in the test on RXF 393 renal; 0.101 µM in the test with SK-MEL-28 melanoma; under 0.01 µM in the test with U251 CNS; 0.0321 µM in the test with EKVX NSCLC; under 0.0154 µM in the test on UACC-257 melanoma. For the same compound, the GI50 is under 0.01 µM in the test on HT29 colon, under 0.013 µM in the test on SW-620 colon, under 0.01 µM in the test on RPMI-8226 leukemia and under 0.01 µM in the test with 786-0 renal. The TGI in the test on OVCAR-4 ovarian was 0.711 µM; in the test on RXF 393 renal, under 0.0324 µM; in the test on U251 CNS, 0.124 µM; in the test on EKVX NSCLC, over 100 µM; in the test on UACC-257 melanoma, 0.286 µM; in the test on HT29 colon, 3.83 µM. Besides, the TGI with RPMI-8226 leukemia is 0.154 µM; with 786-0 renal it was under 0.0127 µM.
`Cc1ccc(C)c(NC(=O)c2cc(-c3ccc([N+](=O)[O-])cc3)nc(N)n2)c1`: the TGI with OVCAR-4 ovarian, in the test on RXF 393 renal, with SK-MEL-28 melanoma, in the test on U251 CNS, in the test with EKVX NSCLC and with UACC-257 melanoma was over 100 µM each time. Also, the TGI with HT29 colon, in the test with SW-620 colon, with RPMI-8226 leukemia and in the test with 786-0 renal was over 100 µM each time.
Take `Cc1nn(C(=O)c2ccc(Cl)cc2)c2c1C(c1ccc([N+](=O)[O-])cc1)SC(N)=N2` (configuration not stated): the TGI in the test with OVCAR-4 ovarian, in the test with RXF 393 renal, in the test with SK-MEL-28 melanoma, in the test with U251 CNS, with EKVX NSCLC and in the test with UACC-257 melanoma was over 10 µM each time. Besides, the TGI with HT29 colon, in the test on SW-620 colon, with RPMI-8226 leukemia and with 786-0 renal was over 10 µM each time.
Regarding `CO[C@@H]1[C@@H](OC2OC(C)C(OC3CC(C)(O)C(OC(=O)CC(C)C)C(C)O3)C(N(C)C)C2O)[C@@H](CC=O)C[C@@H](C)C(=O)/C=C/C2O[C@H]2C[C@@H](C)OC(=O)C[C@H]1OC(C)=O` (some centres not stated), the TGI in the test with OVCAR-4 ovarian is 86.7 µM; in the test with RXF 393 renal it was 64.7 µM; in the test with SK-MEL-28 melanoma, 34.8 µM; with U251 CNS it was 35.7 µM; in the test on EKVX NSCLC, over 100 µM; in the test with UACC-257 melanoma, 34 µM. Besides, the TGI in the test on HT29 colon turned out to be 26.4 µM; in the test with SW-620 colon, 35.8 µM; in the test on RPMI-8226 leukemia, 47.4 µM; with 786-0 renal, 50.2 µM.
As for `O=C(O)C1C2CC3C(OC(=O)C31)C2Br` (configuration not stated), the TGI in the test with OVCAR-4 ovarian, in the test on RXF 393 renal, with SK-MEL-28 melanoma, in the test with U251 CNS, with EKVX NSCLC and in the test on UACC-257 melanoma was over 100 µM throughout. Besides, the TGI in the test with HT29 colon, with SW-620 colon, in the test on RPMI-8226 leukemia and with 786-0 renal was over 100 µM each time.
`CCC(Sc1nnc2c3ccccc3n(CC)c2n1)C(=O)Nc1ccccc1OC` (configuration not stated): the GI50 in the test on OVCAR-4 ovarian was over 75.7 µM; with RXF 393 renal, 64 µM; with SK-MEL-28 melanoma it was over 100 µM; with U251 CNS, over 100 µM; in the test on EKVX NSCLC, 1.08 µM; in the test on UACC-257 melanoma, over 100 µM. For the same compound, the GI50 in the test with HT29 colon was over 100 µM; in the test with SW-620 colon it was over 100 µM; in the test with RPMI-8226 leukemia, 4.35 µM; in the test on 786-0 renal, over 100 µM. Moreover, the TGI was over 100 µM in the test on OVCAR-4 ovarian; over 100 µM in the test on RXF 393 renal; over 100 µM in the test with SK-MEL-28 melanoma; over 100 µM with U251 CNS; over 30.1 µM in the test on EKVX NSCLC; over 100 µM in the test on UACC-257 melanoma. The TGI in the test with HT29 colon is over 100 µM; in the test with SW-620 colon, over 100 µM; in the test with RPMI-8226 leukemia it was over 72.8 µM; with 786-0 renal, over 100 µM.
Consider `CN(C)CCNc1ccc([N+](=O)[O-])c2nc3ccccc3c(N)c12`, for which the TGI was 3.58 µM in the test on OVCAR-4 ovarian; 4.32 µM in the test with RXF 393 renal; over 10 µM in the test on SK-MEL-28 melanoma; over 10 µM in the test with U251 CNS; 5.4 µM with EKVX NSCLC; over 10 µM with UACC-257 melanoma. Further, the TGI in the test on HT29 colon was 3.07 µM; in the test with SW-620 colon, 3.74 µM; in the test on RPMI-8226 leukemia it was 1.51 µM; in the test with 786-0 renal, over 10 µM.
As to `O=C(Nc1ccc(Br)cc1)Nc1n[nH]c2ccccc12`, the GI50 with OVCAR-4 ovarian is 56.7 µM; with RXF 393 renal it was over 62.8 µM; in the test with SK-MEL-28 melanoma, over 100 µM; in the test on U251 CNS, over 91.2 µM; with EKVX NSCLC, over 100 µM; in the test on UACC-257 melanoma, over 100 µM. Moreover, the GI50 in the test with HT29 colon, in the test on SW-620 colon and with 786-0 renal was over 100 µM in each case. The TGI with OVCAR-4 ovarian, in the test on RXF 393 renal, in the test with SK-MEL-28 melanoma, with U251 CNS, in the test with EKVX NSCLC and with UACC-257 melanoma was over 100 µM in each case. The TGI in the test on HT29 colon, with SW-620 colon, in the test on RPMI-8226 leukemia and in the test on 786-0 renal was over 100 µM each time.
Consider `COc1cccc(/C=N\Nc2ccc([N+](=O)[O-])cn2)c1O`, for which the GI50 in the test on OVCAR-4 ovarian is 4.28 µM; with RXF 393 renal it was 2.79 µM; in the test on SK-MEL-28 melanoma, 19.6 µM; in the test on U251 CNS, 1.93 µM; in the test on EKVX NSCLC, 3.59 µM; with UACC-257 melanoma, 3.19 µM. In addition, the GI50 in the test on HT29 colon was 28.8 µM; in the test on SW-620 colon, 3.94 µM; with RPMI-8226 leukemia, 3.21 µM; in the test with 786-0 renal it was 3.53 µM. The TGI with OVCAR-4 ovarian was over 100 µM; in the test with RXF 393 renal it was 12.7 µM; in the test with SK-MEL-28 melanoma, over 100 µM; in the test on U251 CNS it was 19.8 µM; in the test with EKVX NSCLC, 29.3 µM; in the test on UACC-257 melanoma it was 20.6 µM. Further, the TGI with HT29 colon is over 100 µM; with SW-620 colon it was over 100 µM; in the test on RPMI-8226 leukemia, 27.8 µM; in the test with 786-0 renal, 28.9 µM.
Turning to `CC(=O)/C=C/C1=C(c2cc3ccccc3s2)c2ccccc2CC1`, the GI50 in the test on OVCAR-4 ovarian is 25.9 µM; in the test with RXF 393 renal, 24.9 µM; in the test on SK-MEL-28 melanoma it was 20.9 µM; with U251 CNS it was 39.6 µM; in the test with EKVX NSCLC it was 39.5 µM; in the test on UACC-257 melanoma, 24.4 µM. Further, the GI50 was 21 µM with HT29 colon, 32.6 µM in the test with SW-620 colon, 3.86 µM in the test with RPMI-8226 leukemia and 33.2 µM in the test with 786-0 renal. The TGI with OVCAR-4 ovarian was over 100 µM; in the test on RXF 393 renal, 57.2 µM; in the test with SK-MEL-28 melanoma, 54.1 µM; with U251 CNS, over 100 µM; in the test on EKVX NSCLC it was over 100 µM; in the test with UACC-257 melanoma, 59.7 µM. The TGI with HT29 colon was over 100 µM; in the test with SW-620 colon, over 100 µM; in the test with RPMI-8226 leukemia, 24.4 µM; in the test with 786-0 renal, over 100 µM.

Source of the values: PubChem BioAssay (NCI).
